Measured values published in patent US20240408093A1, “HETEROBIFUNCTIONAL COMPOUNDS AND THEIR USE IN TREATING DISEASE” (HALDA THERAPEUTICS OPCO, INC., priority 2022, published 2024).
Read-outs that look alike come from different tables or passages of the source. One block for each molecule: values may come before it.

Key:
BTK = biological target: T1, BTK (Homo sapiens, UniProt Q06187); assay: Release of effector protein ligand from heterobifunctional compounds, BTK; assay type: biochemical
T1 construct: BTK (amino acids 387-659)
T1 sequence (Q06187 387-659): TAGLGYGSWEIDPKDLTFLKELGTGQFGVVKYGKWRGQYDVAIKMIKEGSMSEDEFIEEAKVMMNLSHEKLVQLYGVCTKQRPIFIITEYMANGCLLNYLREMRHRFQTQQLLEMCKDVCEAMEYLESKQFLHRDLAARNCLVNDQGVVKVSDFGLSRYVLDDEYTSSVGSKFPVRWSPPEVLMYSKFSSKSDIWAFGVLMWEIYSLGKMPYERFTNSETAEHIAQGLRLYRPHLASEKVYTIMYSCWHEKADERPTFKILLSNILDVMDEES
Method: Exemplary heterobifunctional compounds were evaluated for the ability to release an effector protein ligand in the presence of KRAS G12C, BTK, or EGFR T790M L858R target proteins.
Samples for mass spectrometry for KRAS G12C, BTK, and EGFR T790M L858R were prepared as described above for the intact mass spectrometry target engagement experiment, respectively, except rather than flash-freezing, 20 μL of sample was quenched with 50 μL of 100% acetonitrile. As well, a buffer-only control was used to detect latent release of effector protein ligand analyte. Internal standard (IS) solution consisted of 200 ng/mL propranolol and 50 ng/mL diclofenac in methanol:water 1:1 (v/v). A 4-point calibration curve (calibration standard (CS)) consisting of each analyte was made at final concentrations of 3 nM, 30 nM, 300 nM, and 3000 nM. Unknown samples were diluted such that the unknown analyte concentration was in the linear range of the calibration curve.
Samples for all proteins were prepared and analyzed from the following:
Samples were further analyzed with AB Sciex Triple Quad 5500 system coupled with Shimadzu Prominence HPLC.

HeLa cells (ATCC CCL-2) = assay: Cellular growth inhibition assay, HeLa cells (Example 16); assay type: cell-based; details: Homo sapiens, 72 hours, CellTiter-Glo 2.0
Method: (§1) Exemplary compounds were tested for ability to inhibit the proliferation of HEK293 cells (ATCC CRL-1573) and HeLa cells (ATCC CCL-2).
(§2) HEK293 and HeLa cells were cultured in DMEM (Gibco 11995), supplemented with 10% Heat-inactivated FBS (Gibco A38400-01) and 1% Penicillin/Streptomycin (Gibco 15140-122) at 37° C. with 5% CO2 in a humidified tissue culture incubator. Cells were seeded at 500 cells/well in 384-well, Poly-D-lysine-treated blackplates (Perkin Elmer 6007710) in 25 μL media lacking selection for 18-24 hours. Plates were spun at 300 g for 30 seconds and stored in the incubator overnight. After 24 hours, a 25 μL aliquot of compound-containing medium was added in each well, at a final top concentration of 10 μM test compound, with 3-fold dilutions, using DMSO alone as a negative control. Plates were then spun at 300×g for 3 minutes again and cultured at 37° C. with 5% CO2. After 72 hours, cell viability was quantified with CellTiter-Glo 2.0 (Promega). After equilibrating cell plates at room temperature for 30 minutes, 25 μL CellTiter-Glo 2.0 reagent was dispensed into each well. Plates were mixed on a shaker for 2 minutes at 500 rpm, followed by a 10-minute incubation at room temperature. Luminescence readings were measured with an EnVision Plate Reader (Perkin Elmer). Data was normalized to DMSO treated cell wells. A four-parameter non-linear regression curve fit was applied to dose-response data in Prism to determine the half maximal growth inhibitory concentration (GI50) of each compound.

CCNK = assay: Payload release assay (DC50 readout), CCNK degradation in the presence of recombinant target protein; assay type: cell-based; details: II-series and V-4 (CCNK readout inferred)
Method: Exemplary compounds were tested for ability to cause degradation of CCNK or GSPT1 in the presence of recombinant target protein.
HEK293 LgBiT/GSPT1 HiBiT CRISPR Knock-in cells (Promega) were cultured in DMEM (Gibco 11995), supplemented with 10% Heat-inactivated FBS (Gibco A38400-01) and 1% Penicillin/Streptomycin (Gibco 15140-122) and 200 Vg/ml Hygromycin B (Gibco 10-687-010) at 37° C. with 5% CO2 in a humidified tissue culture incubator. HEK293 LgBiT/CCNK HiBiT cells (in-house, described above) were cultured in DMEM (Gibco 11995), supplemented with 10% Heat-inactivated FBS (Gibco A38400-01) and 1% Penicillin/Streptomycin (Gibco 15140-122) 200 Vg/ml Hygromycin B (Gibco 10-687-010), and 1 Vg/ml Puromycin Dihydrochloride (Thermo A1113803) at 37° C. with 5% CO2 in a humidified tissue culture incubator. Cells were seeded (1000 cells/well for HEK293 LgBiT/GSPT1 HiBiT cells or 3000 cells/well for HEK293 LgBiT/CCNK HiBiT cells) 384-well, tissue culture-treated white plates (Perkin Elmer 6007680) in 10 μL media lacking selection for 18-24 hours. Plates were spun at 300 g for 30 seconds and stored in the incubator overnight. After 24 hours, a 5 μL aliquot of recombinant target protein (final concentration of either 5 μM KRAS amino acids 1-169, C51S, C80L, C118S, G12C or 3 μM EGFR amino acids 696-1022 or 3 μM EGFR amino acids 696-1022, T790M, L858R) was added to wells, followed immediately by a 5 μL aliquot of 4× compound-containing medium supplemented with Endurazine Substrate (Promega N2570) was added in each well, at a final top concentration of 10 μM test compound and 0.5× Endurazine, with 4-fold dilutions, using DMSO alone as a negative control. Plates were then spun at 300×g for 3 minutes again and cultured at 37° C. with 5% CO2. After 6 hours the plate was read on Envision MultiMode Plate Reader 2105 (Perkin Elmer) to measure luminescence signal. Data was normalized to DMSO treated cell wells. A four-parameter non-linear regression curve fit was applied to dose-response data in Prism to determine the half maximal growth inhibitory concentration (GI50) of each compound.

[1] = tested on: HEK293 cells (ATCC CRL-1573); assay: Cellular growth inhibition assay, HEK293 cells (Example 16); assay type: cell-based; details: Homo sapiens, 72 hours, CellTiter-Glo 2.0
Method: as §1, §2

[2] = biological target: T2, EGFR WT (amino acids 669-1011) (Homo sapiens, UniProt P00533); assay: KdELECT binding assay, EGFR WT
T2 construct: purchased Eurofins Discovery (KdELECT); host or cells: bacteria (E. coli BL21-derived, T7 phage)
T2 sequence (P00533 669-1011): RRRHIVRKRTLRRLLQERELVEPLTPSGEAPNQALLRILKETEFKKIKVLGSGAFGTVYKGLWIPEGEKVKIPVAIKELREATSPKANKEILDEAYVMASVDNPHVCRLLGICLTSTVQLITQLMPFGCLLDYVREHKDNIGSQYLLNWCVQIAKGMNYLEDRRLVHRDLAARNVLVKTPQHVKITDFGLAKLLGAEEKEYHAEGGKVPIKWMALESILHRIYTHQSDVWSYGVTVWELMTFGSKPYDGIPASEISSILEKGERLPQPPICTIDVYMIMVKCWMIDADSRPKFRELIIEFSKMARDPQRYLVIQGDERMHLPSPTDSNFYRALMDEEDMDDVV
Method: (§3) Exemplary compounds were tested for ability to bind to EGFR WT (amino acids 669-1011, Accession Number NP_005219.2) or EGFR T790M, L858R (amino acids 669-1011 Accession Number NP_005219.2) expressed from bacteria or mammalian cells, respectively. Compounds were tested using the KdELECT assay at Eurofins Discovery.
(§4) Kinase-tagged T7 phage strains were prepared in an E. coli host derived from the BL21 strain. E. coli were grown to log-phase and infected with T7 phage and incubated with shaking at 32° C. until lysis. The lysates were centrifuged and filtered to remove cell debris. The remaining kinases were produced in HEK-293 cells and subsequently tagged with DNA for qPCR detection. Streptavidin-coated magnetic beads were treated with biotinylated small molecule ligands for 30 minutes at room temperature to generate affinity resins for kinase assays. The liganded beads were blocked with excess biotin and washed with blocking buffer (SeaBlock (Pierce), 1% BSA, 0.05% Tween 20, 1 mM DTT) to remove unbound ligand and to reduce non-specific binding. Binding reactions were assembled by combining kinases, liganded affinity beads, and test compounds in 1x binding buffer (20% SeaBlock, 0.17× PBS, 0.05% Tween 20, 6 mM DTT). Test compounds were prepared as 111× stocks in 100% DMSO. Kd values were determined using an 11-point 3-fold compound dilution series with three DMSO control points. All compounds for Kd measurements are distributed by acoustic transfer (non-contact dispensing) in 100% DMSO. The compounds were then diluted directly into the assays such that the final concentration of DMSO was 0.9%. All reactions performed in polypropylene 384-well plate. Each was a final volume of 0.02 mL. The assay plates were incubated at room temperature with shaking for 1 hour and the affinity beads were washed with wash buffer (1× PBS, 0.05% Tween 20). The beads were then re-suspended in elution buffer (1× PBS, 0.05% Tween 20, 0.5 μM nonbiotinylated affinity ligand) and incubated at room temperature with shaking for 30 minutes. The kinase concentration in the eluates was measured by qPCR.

[3] = biological target: T3, EGFR T790M, L858R (amino acids 669-1011) (Homo sapiens, UniProt P00533, L858R/T790M); assay: KdELECT binding assay, EGFR T790M, L858R
T3 construct: purchased Eurofins Discovery (KdELECT); host or cells: mammalian cells (HEK-293)
T3 sequence (P00533 669-1011 T790M/L858R): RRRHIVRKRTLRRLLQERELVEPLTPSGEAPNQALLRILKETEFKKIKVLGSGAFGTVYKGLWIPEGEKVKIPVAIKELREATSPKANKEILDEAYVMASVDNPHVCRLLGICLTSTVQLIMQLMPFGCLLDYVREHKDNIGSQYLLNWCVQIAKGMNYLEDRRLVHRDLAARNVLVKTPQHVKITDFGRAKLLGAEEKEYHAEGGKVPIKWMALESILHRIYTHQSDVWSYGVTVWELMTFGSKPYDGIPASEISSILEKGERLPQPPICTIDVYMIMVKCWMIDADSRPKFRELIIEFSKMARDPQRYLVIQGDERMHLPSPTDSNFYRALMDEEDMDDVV
Method: as §3, §4

Concentration of Effector Protein Ligand (BTK; Matrix Buffer + Protein (BTK), Time 0 h, detected A1-3): 51.8 nM | Concentration of Effector Protein Ligand (BTK; Matrix Buffer + Protein (BTK), Time 1 h, detected A1-3): 72.3 nM | Concentration of Effector Protein Ligand (BTK; Matrix Buffer + Protein (BTK), Time 4 h, detected A1-3): 118 nM | Concentration of Effector Protein Ligand (BTK; Matrix Buffer + Protein (BTK), Time 22 h, detected A1-3): 164 nM | Concentration of Effector Protein Ligand (BTK; Matrix Buffer, Time 0 h, detected A1-3): 44.9 nM | Concentration of Effector Protein Ligand (BTK; Matrix Buffer, Time 1 h, detected A1-3): 49 nM | Concentration of Effector Protein Ligand (BTK; Matrix Buffer, Time 4 h, detected A1-3): 52.4 nM | Concentration of Effector Protein Ligand (BTK; Matrix Buffer, Time 22 h, detected A1-3): 80.5 nM
Compound: C=C(Cn1cc(CNc2cc(N3CCCC[C@H]3CCO)nc3c(CC)cnn23)ccc1=O)C(=O)N(C)CCOc1c(N)ncnc1-c1cc(F)cc(NC(=O)c2ccc(C3CC3)cc2F)c1C [Compound A1-5]

Compound: C=C(COc1ccc2nc3c(c(CC)c2c1)Cn1c-3cc2c(c1=O)COC(=O)[C@]2(O)CC)C(=O)N1CCC[C@@H](n2nc(-c3ccc(Oc4ccccc4)cc3)c3c(N)ncnc32)C1 [Compound A1-6]
Concentration of Effector Protein Ligand (BTK; Matrix Buffer + Protein (BTK), Time 0 h, detected A1-7): 790 nM | Concentration of Effector Protein Ligand (BTK; Matrix Buffer + Protein (BTK), Time 1 h, detected A1-7): 797 nM | Concentration of Effector Protein Ligand (BTK; Matrix Buffer + Protein (BTK), Time 4 h, detected A1-7): 641 nM | Concentration of Effector Protein Ligand (BTK; Matrix Buffer + Protein (BTK), Time 22 h, detected A1-7): 770 nM | Concentration of Effector Protein Ligand (BTK; Matrix Buffer, Time 0 h, detected A1-7): 104 nM | Concentration of Effector Protein Ligand (BTK; Matrix Buffer, Time 1 h, detected A1-7): 92.6 nM | Concentration of Effector Protein Ligand (BTK; Matrix Buffer, Time 4 h, detected A1-7): 66.4 nM | Concentration of Effector Protein Ligand (BTK; Matrix Buffer, Time 22 h, detected A1-7): 86.4 nM

GI50 (HeLa cells (ATCC CCL-2)): 1.5 to 10 µM | DC50 (CCNK; 0 μM recombinant EGFR T790M L858R, read-out: DC50 at 0 μM EGFR T790M L858R): 5 to 10 µM | DC50 (CCNK; 0 μM recombinant EGFR WT, read-out: DC50 at 0 μM EGFR WT): 5 to 10 µM | Kd [2]: > 2.5 µM | Kd [3]: > 2.5 µM
Compound: C=C(Cn1c(CNc2nc(N3CCN(C)CC3)nc3c(Br)cnn23)nc2c(F)c(F)ccc21)C(=O)N[C@@H]1CN(c2nc(Nc3cn(C)nc3OC)c3ncn(C)c3n2)C[C@H]1F [II-182]
GI50 [1]: 1.5 to 10 µM
